Test results as given in patent publication US5593982A, “Cyclopentanperhydrophenanthren-17β-(3-furyl)-3-derivatives and pharmaceutical compositions comprising same for the treatment of cardiovascular disorders” (Sigma-Tau Industrie Farmaceutiche Riunite S.p.A., priority 1992, dated 1997).
Structures can show the parent of a compound that is named as a salt. Where two headings read alike, the source gives them in different places.

Tests used:
[1] = molecular target: T1, purified Na^+,K^+ -ATPase (Canis lupus familiaris, UniProt P50997); assay: inhibition of the activity of the purified Na+,K+-ATPase measured as % of hydrolysis of 32P-ATP; assay type: biochemical
T1 construct: from tissue; mammalian kidney outer medulla by the cited Jorgensen 1974 method (own knowledge)
Excerpt: (§1) To test the affinity for the receptor site of the Na^+,K^+ -ATPase and the agonist or antagonist activity on the enzyme, the following tests were used: a) displacement of the specific ^3 H-ouabain binding from the Na^+,K^+ -ATPase receptor purified according to Jorghensen (Jorghensen P., BBA, 1974, 356, 36) and Erdmann (Erdmann E. et al., Arzneim. Forsh., 1984, 34, 1314); b) inhibition of the activity of the purified Na^+,K^+ -ATPase measured as % of hydrolysis of ^32 P-ATP in presence and in absence of the tested compound (Mall F. et al., Biochem. Pharmacol., 1984, 33, 47).

[2] = molecular target: T2, Na^+,K^+ -ATPase receptor (Canis lupus familiaris, UniProt P50997); assay: displacement of the specific 3H-ouabain binding from the purified Na+,K+-ATPase receptor
T2 construct: from tissue; mammalian kidney outer medulla by the cited Jorgensen 1974 method (own knowledge)
Excerpt: as §1

[3] = displacement of specific 3H-ouabain binding, purified Na+,K+-ATPase, read-out: Binding 3H-Ouab. Displacement log IC50 (converted)
[4] = hydrolysis of 32P-ATP, purified Na+,K+-ATPase, read-out: Inhibitory Activity log IC50 (converted)

| Compound | IC50 [1] [µM] | IC50 [2] [µM] | IC50 [2, 3] [µM] | IC50 [1, 4] [µM] |
| --- | --- | --- | --- | --- |
| C[C@]12CC[C@H](OCCCNC(=N)N)C[C@H]1CC[C@@H]1[C@@H]2CC[C@]2(C)[C@@H](c3ccoc3)CC[C@]12O [Comp. I-am, 3β-(3-Guanidinopropxy)-17β-(3-furyl)-5β-androstan-14β-ol nitrate] | 3.16 | 0.2 | – | – |
| C[C@]12CC[C@H](OCCCN)CC1=CC[C@@H]1[C@@H]2CC[C@]2(C)[C@@H](c3ccoc3)CC[C@]12O [Comp. I-av, 3β-(3-Aminopropoxy)-17β-(3-furyl)-androst-5-en-14β-ol] | 2.51 | – | 0.631 | – |
| C[C@]12CC[C@H](OCCN3CCCC3)C=C1CC[C@@H]1[C@@H]2CC[C@]2(C)[C@@H](c3ccoc3)C[C@H]3O[C@]132 [Comp. I-bc, 3β-(2-(1-Pyrrolidinyl)ethoxy)-14β,15β-epoxy-17β-(3-furyl)-androst-4-ene] | 2 | 0.316 | – | – |
| CO[C@]12CC[C@H](c3ccoc3)[C@@]1(C)CC[C@H]1[C@H]2CC[C@@H]2C[C@@H](OCCN3CCCC3)CC[C@@]21C [Comp. I-as, 3β-(2-(1-Pyrrolydinyl)ethoxy)-14β-methoxy-17β-(3-furyl)-5β-androstane oxalate] | – | – | 5.01 | 25.1 |
| C[C@]12CC[C@H](OCCN3CCCC3)CC1=CC[C@@H]1[C@@H]2CC[C@]2(C)[C@@H](c3ccoc3)CC[C@]12O [Comp. I-aw, 3β-(2-(1-Pyrrolidinyl)ethoxy)-17β-(3-furyl)-androst-5-en--14β-ol] | – | 1.58 | – | 6.31 |
| C[C@]12CC[C@H](OCCN3CCCC3)C[C@@H]1CC[C@@H]1[C@@H]2CC[C@]2(C)[C@@H](c3ccoc3)CC[C@]12O [Comp. I-ay, 3β-(2-(1-Pyrrolidinyl)ethoxy)-17β-(3-furyl)-5α-androstan-14β-ol] | 3.16 | 0.398 | – | – |
| C[C@]12CC[C@H](OCCNCCCN3CCCC3)C[C@H]1CC[C@@H]1[C@@H]2CC[C@]2(C)[C@@H](c3ccoc3)CC[C@]12O [Comp. I-db, 3β-(2-(3-(1-Pyrrolidinyl)propylamino)ethoxy)-17β-(3-furyl)-5β-androstan-14β-ol] | 1.58 | 0.2 | – | – |
| C[C@]12CC[C@H](SCCCN)C[C@H]1CC[C@@H]1[C@@H]2CC[C@]2(C)[C@@H](c3ccoc3)C[C@H]3O[C@]132 [Comp. I-cj, 3β-(3-Aminopropylthio)-14β,15β-epoxy-17β-(3-furyl)-5β-androstane oxalate] | 6.31 | 2 | – | – |
| C[C@]12CC[C@H](OCCOCC(N)CN)C[C@H]1CC[C@@H]1[C@@H]2CC[C@]2(C)[C@@H](c3ccoc3)CC[C@]12O (stereo partly drawn) [Comp. I-cz, 3β-(2-(2,3-Diaminopropoxy)ethoxy)-17β-(3-furyl)-5β-androstan-14β-ol] | 2 | 0.398 | – | – |
| C[C@]12CC[C@H](OCCN3CCCC3)C[C@H]1CC[C@@H]1[C@@H]2CC[C@]2(C)[C@@H](c3ccoc3)C[C@H]3O[C@]132 [Comp. I-ba, 3β-(2-(1-Pyrrolidinyl)ethoxy)-14β,15β-epoxy-17β-(3-furyl)-5β-androstane oxalate] | 1.58 | 0.631 | – | – |
| C[C@]12CC[C@H](OCCOCCCN3CCCC3)C[C@H]1CC[C@@H]1[C@@H]2CC[C@]2(C)[C@@H](c3ccoc3)CC[C@]12O [Comp. I-da, 3β-(2-(3-(1-Pyrrolidinyl)propoxy)ethoxy)-17β-(3-furyl)-5β-androstan-14β-ol] | 1.58 | 0.316 | – | – |
| C[C@]12CC[C@H](OCCOCCCN)C[C@H]1CC[C@@H]1[C@@H]2CC[C@]2(C)[C@@H](c3ccoc3)CC[C@]12O [Comp. I-cx, 3β-(2-(3-Aminopropoxy)ethoxy)-17β-(3-furyl)-5β-androstan, 14β-ol] | 1.58 | 0.2 | – | – |
| C[C@]12CC[C@H](SCCCN3CCNCC3)C[C@H]1CC[C@@H]1[C@@H]2CC[C@]2(C)[C@@H](c3ccoc3)CC[C@]12O [Comp. I-bx, 3β-(3-(1-Piperazinyl)propylthio)-17β-(3-furyl)-5β-androstan-14β-ol dioxalate] | 1 | 0.501 | – | – |
| C[C@]12CC[C@H](OCCCN)C=C1CC[C@@H]1[C@@H]2CC[C@]2(C)[C@@H](c3ccoc3)CC[C@]12O [Comp. I-at, 3β-(3-Aminopropoxy)-17β-(3-furyl)-androst-4-en-14β-ol] | 2.51 | – | 0.631 | – |
| C[C@]12CC[C@H](OCCN3CCCC3)C[C@H]1CC[C@@H]1[C@@H]2CC[C@]2(C)[C@@H](c3ccoc3)CC[C@]12O [Comp. I-ad, 3β-(2-(1-Pyrrolydinyl)ethoxy)-17β-(3-furyl)-5β-androstan-14β-ol] | 1 | 0.158 | – | – |
| C[C@]12CC[C@H](OCC[N+]3(C)CCCC3)C[C@H]1CC[C@@H]1[C@@H]2CC[C@]2(C)[C@@H](c3ccoc3)CC[C@]12O [Comp. I-ak, 3β-(2-(N-methyl-1-pyrrolydinium)ethoxy)-17β-(3-furyl)-5β-androstan-14β-ol iodide] | – | 0.158 | – | 1.26 |
| C[C@]12CC[C@H](OCC(N)CN)C[C@H]1CC[C@@H]1[C@@H]2CC[C@]2(C)[C@@H](c3ccoc3)CC[C@]12O (stereo partly drawn) [Comp. I-ao, 3β-(2,3-Diaminopropoxy)-17β-(3-furyl)-5β-androstan-14β-ol] | 1.58 | 0.316 | – | – |
| C[C@]12CC[C@H](OCCCCN)C[C@H]1CC[C@@H]1[C@@H]2CC[C@]2(C)[C@@H](c3ccoc3)CC[C@]12O [Comp. I-ac, 3β-(4-Aminobutoxy)-17β-(3-furyl)-5β-androstan-14β-ol] | 2 | 0.398 | – | – |
| C[C@]12CC[C@H](OCC(CN3CCCC3)N3CCCC3)C[C@H]1CC[C@@H]1[C@@H]2CC[C@]2(C)[C@@H](c3ccoc3)CC[C@]12O (stereo partly drawn) [Comp. I-ap, 3β-(2,3-Bis(1-pyrrolidinyl)propoxy)-17β-(3-furyl)-5β-androstan-14β-ol] | 1.58 | 0.398 | – | – |
| C[C@]12CC[C@H](OCCOCCN3CCCC3)C[C@H]1CC[C@@H]1[C@@H]2CC[C@]2(C)[C@@H](c3ccoc3)CC[C@]12O [Comp. I-ah, 3β-(2-(2-(1-Pyrrolidinyl)ethoxy)ethoxy)-17β-(3-furyl)-5β-androstan-14β-ol] | 0.794 | 0.158 | – | – |
| CN(C)CCCOCCO[C@H]1CC[C@@]2(C)[C@H](CC[C@@H]3[C@@H]2CC[C@]2(C)[C@@H](c4ccoc4)CC[C@]32O)C1 [Comp. I-aj, 3β-(2-(3-Dimethylaminopropoxy)-ethoxy)-17β-(3-furyl)-5β-androstan-14β-ol] | – | 0.158 | – | 1.26 |
| C[C@]12CC[C@H](OCCN3CCCC3)C=C1CC[C@@H]1[C@@H]2CC[C@]2(C)[C@@H](c3ccoc3)CC[C@]12O [Comp. I-au, 3β-(2-(1-Pyrrolidinyl)ethoxy)-17β-(3-furyl)-androst-4-en-14β-ol oxalate] | 1.58 | 0.316 | – | – |
| CNCCO[C@H]1CC[C@@]2(C)[C@H](CC[C@@H]3[C@@H]2CC[C@]2(C)[C@@H](c4ccoc4)CC[C@]32O)C1 [Comp. I-an, 3β-(2-Methylaminoethoxy)-17β-(3-furyl)-5β-androstan-14β-ol] | 1.58 | 0.2 | – | – |
| CO[C@]12CC[C@H](c3ccoc3)[C@@]1(C)CC[C@H]1[C@H]2CC[C@@H]2C[C@@H](OCCCN)CC[C@@]21C [Comp. I-ar] | – | – | 3.16 | 25.1 |
| C[C@]12CC[C@H](SCCN3CCCC3)C=C1CC[C@@H]1[C@@H]2CC[C@]2(C)[C@@H](c3ccoc3)CC[C@]12O [Comp. I-ce, 3β-(2-(1-Pyrrolidinyl)ethylthio)-17β-(3-furyl)-androst-4-en-14β-ol oxalate] | 3.16 | 1 | – | – |
| C[C@]12CC[C@H](OCCCN3CCNCC3)C[C@H]1CC[C@@H]1[C@@H]2CC[C@]2(C)[C@@H](c3ccoc3)CC[C@]12O [Comp. I-af, 3β-(3-(1-Piperazinyl)propoxy)-17β-(3-furyl)-5.β-androstan-14β-ol] | – | 0.1 | – | 1.26 |
| C[C@]12CC[C@H](OCCOCC(O)CN)C[C@H]1CC[C@@H]1[C@@H]2CC[C@]2(C)[C@@H](c3ccoc3)CC[C@]12O (stereo partly drawn) [Comp. I-cy, 3β-(2-(3-Amino-2-hydroxypropoxy)ethoxy)-17β-(3-furyl)-5β-androstan-14β-ol] | 1.58 | 0.398 | – | – |
| C[C@]12CC[C@H](OCCN)C[C@H]1CC[C@@H]1[C@@H]2CC[C@]2(C)[C@@H](c3ccoc3)CC[C@]12O [Comp. I-aa, 3β-(2-Aminoethoxy)-17β-(3-furyl)-5β-androstan-14β-ol] | 0.501 | 0.158 | – | – |
| C[C@]12CC[C@H](SCCN3CCOCC3)C[C@H]1CC[C@@H]1[C@@H]2CC[C@]2(C)[C@@H](c3ccoc3)CC[C@]12O [Comp. I-bu, 3β-(2-(4-Morpholinoethylthio)-17β-(3-furyl)-5β-androstan-14β-ol oxalate] | 0.631 | 0.316 | – | – |
